Data reported in patent US7419997B2, “Tetrahydrocarbazole derivatives and their pharmaceutical use” (SmithKline Beecham Corporation, priority 2003, dated 2008).

System: episomal HPV16 DNA in W12-20850 cells
Test: W-12 cellular assay (episomal HPV-16 DNA, hybrid capture)
Format: cell-based, HPV16 (human papillomavirus)
Conditions: Human papillomavirus 16, 96 h, four days incubation, episomal HPV-16 DNA quantified by hybrid capture, inhibition relative to untreated control cells
Description: Compounds of the current invention are believed useful in the treatment and/or prophylaxis of conditions and diseases associated with HPV infection. Activity mediated through HPV was determined using the following W-12 cellular assay.
The W12 cell line used contains HPV16 DNA and was derived from a low-grade cervical dysplasia tissue by Margaret Stanley and subsequently clonally selected by Paul Lambert (University of Wisconsin). One of these clones, W12-20850, contains 1000 copies of episomal HPV16 DNA and was used in the cell-based assay. W12-20850 cells were routinely cultured with a gamma-irradiated (6000 rads) feeder layer of 3T3 cells. Assays, however, were run in the absence of a 3T3 feeder layer. W12-20850 and 3T3 cells were routinely split when they were sub-confluent. W12-20850 were grown in W12 Medium which is constituted of 25% DMEM (Gibco BRL, Cat # 12430-047), 75% F12 Media (Gibco BRL, Cat # 11765-021) and 2.5% FBS. The additives include […] Adenine (Sigma, Cat # A-9795), 0.4 mg/ml Hydrocortisone (Calbiochem, Cat # 386698), […] Bovine Insulin (Sigma, Cat # I-1882), 8.4 ng/ml cholera toxin (Fluka, Cat # 26694) and 10 ng/ml EGF (Invitrogen, Cat # 13247-051). 3T3 cells were grown in DMEM containing 10% FBS. Cell lines were incubated at 37° C., in the presence of 5% CO2.
For the assay, W12-20850 cells were seeded into a 96 well plate-containing compound. Plates were incubated at 37° C. in the presence of 5% CO2, for four days. On the fourth day, cells were lysed and the amount of episomal HPV-16 DNA was quantified using a non-radioactive hybrid capture technique with HPV-16 specific capture and detection probes. The percent inhibition relative to untreated control cells was then determined.
The hybrid capture assay is run in a 96 well plate format. Hybridization plates (Nunc Maxisorb Cat # 450320) were coated with a mixture of capture probe and ReactiBind solution for at least 4 hours and then washed with 0.2)(SSC, 0.05% Tween20 (SSCT) prior to blocking with 150 μl/well of 0.2 N NaOH, 1% Igepal, 10 mg/ml hsDNA for 6-8 hours. The hybridization was carried out by mixing 271 μl of lysed cells with 45 μl of denatured detection probe in 6M guanidine isothiocyanate. To prevent evaporation, 50 μl of mineral oil was added to each well. The plate was then heated to 90° C. for 6.5 minutes and the hybridization continued at 42° C. overnight. Assay plates were washed 6 times with SSC/T. Anti-digoxigenin HRP-conjugated Ab (Boehringer Mannheim 1207733, 1:5000) was incubated in the wells for 30 min at room temperature and washed with PBS/0.05% Tween-20. SuperSignal LBA substrate (Pierce Cat # 37070) was added, and chemiluminescence was measured using Wallac 1420 Victor plate reader.

Structure (SMILES)	IC50 [nM]
Cc1ccc2[nH]c3c(c2c1)CCCC3NC(=O)Nc1ccccc1 (stereo not shown) [Example 43, N-(6-Methyl-2,3,4,9-tetrahydro-1H-carbazol-1-yl)-N′-phenylurea]	> 10000
O=C(Nc1ccccc1)NC1CCCc2c1[nH]c1ccc(Cl)cc21 (stereo not shown) [Example 44, N-(6-Chloro-2,3,4,9-tetrahydro-1H-carbazol-1-yl)-N′-phenylurea]	1700
O=C(NC1CCCc2c1[nH]c1ccc(Cl)cc21)c1ccccn1 (stereo not shown) [Example 45A, N-(6-Chloro-2,3,4,9-tetrahydro-1H-carbazol-1-yl)-2-pyridinecarboxamide]	10
O=C(N[C@@H]1CCCc2c1[nH]c1ccc(Cl)cc21)c1ccccn1 [Example 45B, N-[(1R)-6-chloro-2,3,4,9-tetrahydro-1H-carbazol-1-yl]pyridine-2-carboxamide]	5
O=C(N[C@H]1CCCc2c1[nH]c1ccc(Cl)cc21)c1ccccn1 [Example 45C, N-[(1S)-6-chloro-2,3,4,9-tetrahydro-1H-carbazol-1-yl]pyridine-2-carboxamide]	6000
O=C(NC1CCCc2c1[nH]c1ccc(Cl)cc21)c1ccccc1F (stereo not shown) [Example 46A, N-(6-Chloro-2,3,4,9-tetrahydro-1H-carbazol-1-yl)-2-fluorobenzamide]	12
O=C(N[C@@H]1CCCc2c1[nH]c1ccc(Cl)cc21)c1ccccc1F [Example 46B, N-[(1R)-6-chloro-2,3,4,9-tetrahydro-1H-carbazol-1-yl]-2-fluorobenzamide]	7
O=C(N[C@H]1CCCc2c1[nH]c1ccc(Cl)cc21)c1ccccc1F [Example 46C, N-[(1S)-6-chloro-2,3,4,9-tetrahydro-1H-carbazol-1-yl]-2-fluorobenzamide]	> 3000
Cn1cncc1C(=O)NC1CCCc2c1[nH]c1ccc(Cl)cc21 (stereo not shown) [Example 47, N-(6-Chloro-2,3,4,9-tetrahydro-1H-carbazol-1-yl)-1-methyl-1H-imidazole-5-carboxamide]	810
Cn1nccc1C(=O)NC1CCCc2c1[nH]c1ccc(Cl)cc21 (stereo not shown) [Example 48, N-(6-Chloro-2,3,4,9-tetrahydro-1H-carbazol-1-yl)-1-methyl-1H-pyrazole-5-carboxamide]	2240
Cn1ccc(C(=O)NC2CCCc3c2[nH]c2ccc(Cl)cc32)n1 (stereo not shown) [Example 49, N-(6-Chloro-2,3,4,9-tetrahydro-1H-carbazol-1-yl)-1-methyl-1H-pyrazole-3-carboxamide]	1650
O=C(NC1CCCc2c1[nH]c1ccc(Cl)cc21)c1c[nH]cn1 (stereo not shown) [Example 50, N-(6-Chloro-2,3,4,9-tetrahydro-1H-carbazol-1-yl)-1H-imidazole-4-carboxamide]	440
O=C(NC1CCCc2c1[nH]c1ccc(Cl)cc21)c1cc[nH]n1 (stereo not shown) [Example 51, N-(6-Chloro-2,3,4,9-tetrahydro-1H-carbazol-1-yl)-1H-pyrazole-3-carboxamide]	73
O=C(NC1CCCc2c1[nH]c1ccc(Br)cc21)c1c(F)cccc1F (stereo not shown) [Example 52, N-(6-bromo-2,3,4,9-tetrahydro-1H-carbazol-1-yl)-2,6-difluorobenzamide]	45
O=S(=O)(NC1CCCc2c1[nH]c1ccc(Br)cc21)c1ccccc1F (stereo not shown) [Example 53, N-(6-bromo-2,3,4,9-tetrahydro-1H-carbazol-1-yl)-2-fluorobenzenesulfonamide]	51
O=S(=O)(NC1CCCc2c1[nH]c1ccc(Br)cc21)c1c(F)cccc1F (stereo not shown) [Example 54, N-(6-bromo-2,3,4,9-tetrahydro-1H-carbazol-1-yl)-2,6-difluorobenzenesulfonamide]	94
